Values of other authors as cited in US20120043242A1, “Medicinal cannabis fatty foodstuff” (priority 2010, published 2012).
Like-named read-outs stand apart in the source and are kept apart here.

Experiments:
[1] = system: people who use cannabis; conditions: compared with the no cannabinoid and the TCH+CBD groups
[2] = system: healthy individuals; conditions: healthy individuals / humans

Structure (SMILES)	positive schizophrenia-like symptoms [1]	anxiety and psychotic symptoms [2]	degradation of Δ^9-THC into cannabinol and dihydrocannabinol (160 degrees C.)	degradation of Δ^9-THC into cannabinol and dihydrocannabinol (180 degrees C.)	decarboxylation of concentrated THCA-A in solution into Δ^9-THC (120 degrees C.)	decarboxylation of concentrated THCA-A in solution into Δ^9-THC (140 degrees C.)	decarboxylation of concentrated THCA-A in solution into Δ^9-THC (160 degrees C.)
CCCCCc1cc(O)c2c(c1)OC(C)(C)[C@@H]1CCC(C)=C[C@@H]21 [Δ^9-THC, Tetrahydrocannabinol]	higher levels	elevate levels of anxiety and psychotic symptoms	some degradation	A significant percentage	–	–	–
CCCCCc1cc2c(c(O)c1C(=O)O)[C@@H]1C=C(C)CC[C@H]1C(C)(C)O2 [THCA-A, tetrahydrocannabinol carboxylic acid]	–	–	–	–	Partial decarboxylation	Significant decarboxylation	Nearly complete decarboxylation
C=C(C)[C@@H]1CCC(C)=C[C@H]1c1c(O)cc(CCCCC)cc1O [CBD, cannabidiol]	–	anxiolytic and to have antipsychotic properties	–	–	–	–	–
